# Laboratory results: patent US5869494A, “Uses for barbituric acid analogs” (priority 1997, dated 1999)
# How the values were obtained:
# [1] = In vivo toxicity, repeat oral dose; design: species or system BALB/c mice; conditions: for mortality: group of three mice
# Experimental: In preliminary repeat dose studies, a suspension of C1 in polyethylene glycol (C1 is mixed with a 2.5% solution of polyethylene glycol and homogenized in a sterile dounce homogenizer until it flows freely through a 22×11/2" with 11/4 mm ball feeding needle) was administered orally to a group of three BALB/c mice.
# SN12C = test: NCI tumor cell line screen (SRB assay); format: cell-based; design: activity: dose or concentration left out as unconfirmed; conditions: Homo sapiens, read-out: PERCENT GROWTH
# Experimental: (§1) The National Cancer Institute carried out the studies at the direction of the present inventor.
# (§2) In the tests, the National Cancer Institute used the SRB (sulforhodamine B) assay as described by Skehan et al., (Journal of the National Cancer Institute, 82:13, Jul. 4, 1990, 1107-1112). Briefly, the assay is as follows. TCA-fixed cells were stained for 30 minutes with 0.4% (wt/vol) SRB dissolved in 1% acetic acid. At the end of the staining period, SRB was removed and cultures were quickly rinsed four times with 1% acetic acid to remove unbound dye. The acetic acid was poured directly into the culture wells from a beaker. […] Residual wash solution was removed by sharply flicking plates over a sink, which ensured the complete removal of rinsing solution. […] After being rinsed, the cultures were air dried until no standing moisture was visible. Bound dye was solubilized with 10 mM unbuffered Tris base (pH 10.5) for 5 minutes on a gyratory shaker.
# (§3) Optical density (OD) was read in either a UVmax microtiter plate reader (Molecular Devices, Menlo Park, Calif.) or a Beckman DU-70 spectrophotometer. For maximum sensitivity, OD was measured at 564 nm. Because readings were linear with dye concentrations only below 1.8 OD units, however, suboptimal wavelengths were generally used, so that all samples in an experiment remained within the linear OD range. With most cell lines, wavelengths of approximately 490-530 nm worked well for this purpose.
# (§4) Nine different non-small cell lung carcinoma cell lines, six different colon carcinoma cell lines, six different CNS (central nervous system) carcinoma cell lines, seven different melanoma cell lines, six different ovarian carcinoma cell lines, and eight different renal carcinoma cell lines were tested.
# HCC-2998 = test: NCI tumor cell line screen (SRB assay); format: cell-based; design: activity: dose or concentration left out as unconfirmed; conditions: Homo sapiens, read-out: PERCENT GROWTH
# Experimental: as §1, §2, §3, §4
# NCI-H226 = test: NCI tumor cell line screen (SRB assay); format: cell-based; design: activity: dose or concentration left out as unconfirmed; conditions: Homo sapiens, read-out: PERCENT GROWTH
# Experimental: as §1, §2, §3, §4
# HT29 = test: NCI tumor cell line screen (SRB assay); format: cell-based; design: activity: dose or concentration left out as unconfirmed; conditions: Homo sapiens, HT-29, read-out: PERCENT GROWTH
# Experimental: as §1, §2, §3, §4
# EKVX = test: NCI tumor cell line screen (SRB assay); format: cell-based; design: activity: dose or concentration left out as unconfirmed; conditions: Homo sapiens, read-out: PERCENT GROWTH
# Experimental: as §1, §2, §3, §4
# OVCAR-4 = test: NCI tumor cell line screen (SRB assay); format: cell-based; design: activity: dose or concentration left out as unconfirmed; conditions: Homo sapiens, read-out: PERCENT GROWTH
# Experimental: as §1, §2, §3, §4
# NCI-H522 = test: NCI tumor cell line screen (SRB assay); format: cell-based; design: activity: dose or concentration left out as unconfirmed; conditions: Homo sapiens, read-out: PERCENT GROWTH
# Experimental: as §1, §2, §3, §4
# T cells = test: Modulation of T cells in HIV-1 positive subjects; format: in vivo, human; conditions: 4.3 mg/kg for 15 days; one subject; before treatment 425; normal range 650-1330
# From the text: Blood samples were drawn before and after on day 15 or 30 from the initiation of treatment for regular CBC profile. […] The normal range of T cells is 650-1330.
# [2] = tested on: Herpes simplex virus (HSV); test: Inactivation of Herpes simplex virus (plaque assay on Vero cells); format: cell-based; conditions: for PFU/ml: control 7.1 × 10^5
# Experimental: The control sample received vehicle only. After the incubation period, samples were serially diluted and 0.1 ml of each dilution and the undiluted samples were inoculated into monolayers of Vero cells (African green monkey kidney cells). Overlay medium was added and the monolayers were incubated at 37° C. After 3 days of incubation, the overlay medium was removed, and the monolayer cells were fixed with methanol and treated with Giemsa stain.
# [3] = Alleviation of depression in HIV-1 positive subjects; format: in vivo, human; conditions: 4.3 mg/kg for 15 days; three HIV-1 positive subjects
# NCI-H322M = test: NCI tumor cell line screen (SRB assay); format: cell-based; conditions: Homo sapiens, read-out: PERCENT GROWTH
# Experimental: as §1, §2, §3, §4
# HCT-15 = test: NCI tumor cell line screen (SRB assay); format: cell-based; conditions: Homo sapiens, read-out: PERCENT GROWTH
# Experimental: as §1, §2, §3, §4
# [4] = tested on: human immunodeficiency virus (HIV-1); test: Inactivation of cell free HIV-1 (MT-4 indicator cells); format: cell-based; conditions: 2 h treatment, MT-4 + HIV-1, day 7
# Experimental: After 2 h at 37° C., treated and control HIV-1 samples were added to the indicator MT-4 cells (cultured human T cells) in the presence of 2 μg/ml POLYBRENE™ for 2 h. After washing, MT-4 cells were cultured in the presence of drug-treated or control (untreated) HIV-1. Cell viability of MT-4 cells was determined by the trypan blue dye exclusion method.
# [5] = Vero, 150 μg/ml, 24 h at 37° C.
smiles,measurement,setting,value
"CCCCN1C(=O)CC(=O)N(CCCC)C1=S [Compound C1, 4,6(1H, 5H)-pyrimidinedione, 1,3-dibutyldihydro-2-thioxo]",tolerability and survival,"[1]; 400 mg/kg daily oral, 10 days",easily tolerated and all animals survived the treatment
same,mortality,[1]; 800 mg/kg daily oral,one animal died on day three and another died on day 10
same,mortality,[1]; 1000 mg/kg daily oral,"one animal died on day 2, another on day 5 and a third animal died on day 10"
same,mortality,[1]; 1200 mg/kg daily oral,all animals died on day 3
same,activity,SN12C; 10^-3.0 Molar,-42%
same,activity at 100 µM,SN12C; 10^-4.0 Molar,62%
same,activity at 10 µM,SN12C; 10^-5.0 Molar,89%
same,activity at 1 µM,SN12C; 10^-6.0 Molar,58%
same,activity at 0.1 µM,SN12C; 10^-7.0 Molar,90%
same,activity,HCC-2998; 10^-3.0 Molar,-82%
same,activity at 10 µM,HCC-2998; 10^-5.0 Molar,109%
same,activity at 0.1 µM,HCC-2998; 10^-7.0 Molar,113%
same,activity,NCI-H226; 10^-3.0 Molar,-39%
same,activity at 100 µM,NCI-H226; 10^-4.0 Molar,90%
same,activity at 10 µM,NCI-H226; 10^-5.0 Molar,106%
same,activity at 1 µM,NCI-H226; 10^-6.0 Molar,100%
same,activity at 0.1 µM,NCI-H226; 10^-7.0 Molar,96%
same,activity,HT29; 10^-3.0 Molar,-96%
same,activity at 100 µM,HT29; 10^-4.0 Molar,76%
same,activity at 1 µM,HT29; 10^-6.0 Molar,103%
same,activity at 0.1 µM,HT29; 10^-7.0 Molar,102%
same,activity,EKVX; 10^-3.0 Molar,-69%
same,activity at 100 µM,EKVX; 10^-4.0 Molar,94%
same,activity at 10 µM,EKVX; 10^-5.0 Molar,104%
same,activity at 1 µM,EKVX; 10^-6.0 Molar,106%
same,activity at 0.1 µM,EKVX; 10^-7.0 Molar,98%
same,activity,OVCAR-4; 10^-3.0 Molar,-75%
same,activity at 100 µM,OVCAR-4; 10^-4.0 Molar,66%
same,activity at 10 µM,OVCAR-4; 10^-5.0 Molar,105%
same,activity at 1 µM,OVCAR-4; 10^-6.0 Molar,104%
same,activity at 0.1 µM,OVCAR-4; 10^-7.0 Molar,101%
same,activity,NCI-H522; 10^-3.0 Molar,-82%
same,activity at 100 µM,NCI-H522; 10^-4.0 Molar,47%
same,activity at 10 µM,NCI-H522; 10^-5.0 Molar,104%
same,activity at 1 µM,NCI-H522; 10^-6.0 Molar,102%
same,activity at 0.1 µM,NCI-H522; 10^-7.0 Molar,100%
same,T cell count after treatment,T cells,720
same,PFU/ml,"[2]; 30 μg/ml, 24 h at 37° C.",2.1 × 10^5 PFU/ml
same,PFU/ml,"[2]; 120 μg/ml, 24 h at 37° C.",6.5 × 10^5 PFU/ml
same,PFU/ml,"[2]; 150 μg/ml, 24 h at 37° C.",7.5 × 10^5 PFU/ml
same,log reduction at 120 µg/mL,"[2]; Vero, 24 h",2.04
same,killing at 120 µg/mL,"[2]; Vero, 24 h, read-out: % Inactivation",99%
same,killing at 30 µg/mL,"[2]; Vero, 30 μg/ml, 24 h at 37° C.",70.4%
same,log reduction at 30 µg/mL,"[2]; Vero, 30 μg/ml, 24 h at 37° C.",0.53
same,killing at 60 µg/mL,"[2]; Vero, 60 μg/ml, 24 h at 37° C.",78.9%
same,log reduction at 60 µg/mL,"[2]; Vero, 60 μg/ml, 24 h at 37° C.",0.68
same,killing at 150 µg/mL,[2]; [5],99.9%
same,log reduction at 150 µg/mL,[2]; [5],3
same,symptoms reported by subjects,[3],"alleviation from lethargy, depression and an increased appetite, feeling of being happy, and desire to live"
same,activity,NCI-H322M; 10^-3.0 Molar,-100%
same,activity at 100 µM,NCI-H322M; 10^-4.0 Molar,127%
same,activity at 10 µM,NCI-H322M; 10^-5.0 Molar,136%
same,activity at 1 µM,NCI-H322M; 10^-6.0 Molar,144%
same,activity at 0.1 µM,NCI-H322M; 10^-7.0 Molar,145%
same,activity at 100 µM,HCT-15; 10^-4.0 Molar,72%
same,activity at 10 µM,HCT-15; 10^-5.0 Molar,102%
same,activity at 1 µM,HCT-15; 10^-6.0 Molar,102%
same,activity at 0.1 µM,HCT-15; 10^-7.0 Molar,99%
same,% Inactivation Day 7,[4]; 125 μg/ml,62%
same,killing at 75 µg/mL,"[4]; Human immunodeficiency virus 1, 168 h, 75 μg/ml",7.7%
same,killing at 100 µg/mL,"[4]; Human immunodeficiency virus 1, 168 h, 100 μg/ml",34.1%
same,killing at 125 µg/mL,"[4]; Human immunodeficiency virus 1, 168 h, 125 μg/ml",62.6%
